{
  "source": "paper PMC12064818",
  "about": "“A general assay platform to study protein pharmacology using ligand-dependent structural dynamics” (Nature Communications, 2025)",
  "target": "FLuc-C-NLuc (firefly luciferase) (Photinus pyralis, UniProt P08659, form not given/L550V)",
  "sequence (P08659 2-550 L550V, form open)": "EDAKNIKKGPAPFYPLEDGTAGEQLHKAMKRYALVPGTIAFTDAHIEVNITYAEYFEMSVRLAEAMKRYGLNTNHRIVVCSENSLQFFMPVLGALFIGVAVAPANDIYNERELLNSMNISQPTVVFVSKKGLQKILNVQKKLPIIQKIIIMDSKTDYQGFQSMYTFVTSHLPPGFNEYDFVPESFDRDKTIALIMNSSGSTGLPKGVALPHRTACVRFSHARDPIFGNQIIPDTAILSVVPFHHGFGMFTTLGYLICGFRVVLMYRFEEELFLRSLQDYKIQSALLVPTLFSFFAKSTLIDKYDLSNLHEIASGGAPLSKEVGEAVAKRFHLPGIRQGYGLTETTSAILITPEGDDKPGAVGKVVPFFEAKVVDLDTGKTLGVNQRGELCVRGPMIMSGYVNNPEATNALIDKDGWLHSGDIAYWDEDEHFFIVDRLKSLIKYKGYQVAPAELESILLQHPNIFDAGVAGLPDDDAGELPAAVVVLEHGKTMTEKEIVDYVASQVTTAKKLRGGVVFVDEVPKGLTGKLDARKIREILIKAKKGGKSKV",
  "experiment": "SDR assay, FLuc-C-NLuc",
  "conditions": "for SDR + 10 mM ATP / SDR No ATP: 1 nM FLuc-C-NLuc, normalized activity, Log [Compound]; for SDR+ATP / SDR: Log[Compound]; for SDR+ATP: 10 mM ATP; for SDR: absence of ATP",
  "data": [
    {"smiles": "CC(CNC(=O)C1CCN(C(=O)c2ncn3c2COC(c2ccccc2)C3)CC1)c1ccccc1", "note": "(stereo not shown) [compound 00449795]", "values": [
      {"measurement": "SDR + 10 mM ATP", "setting": "M -4.48", "value": 34.2},
      {"measurement": "SDR No ATP", "setting": "M -4.48", "value": -1.4},
      {"measurement": "SDR + 10 mM ATP", "setting": "M -4.96", "value": 33.8},
      {"measurement": "SDR No ATP", "setting": "M -4.96", "value": -2.1},
      {"measurement": "SDR + 10 mM ATP", "setting": "M -5.44", "value": 30.7},
      {"measurement": "SDR No ATP", "setting": "M -5.44", "value": -1.5},
      {"measurement": "SDR + 10 mM ATP", "setting": "M -5.91", "value": 28.0},
      {"measurement": "SDR No ATP", "setting": "M -5.91", "value": -3.2},
      {"measurement": "SDR + 10 mM ATP", "setting": "M -6.39", "value": 22.7},
      {"measurement": "SDR No ATP", "setting": "M -6.39", "value": -2.0},
      {"measurement": "SDR + 10 mM ATP", "setting": "M -6.87", "value": 5.0},
      {"measurement": "SDR No ATP", "setting": "M -6.87", "value": -1.8},
      {"measurement": "SDR + 10 mM ATP", "setting": "M -7.35", "value": 2.2},
      {"measurement": "SDR No ATP", "setting": "M -7.35", "value": -2.1},
      {"measurement": "SDR + 10 mM ATP", "setting": "M -7.82", "value": -0.7},
      {"measurement": "SDR No ATP", "setting": "M -7.82", "value": -1.8},
      {"measurement": "SDR + 10 mM ATP", "setting": "M -8.30", "value": -0.9},
      {"measurement": "SDR No ATP", "setting": "M -8.30", "value": -1.6},
      {"measurement": "SDR + 10 mM ATP", "setting": "M -8.78", "value": -2.4},
      {"measurement": "SDR No ATP", "setting": "M -8.78", "value": -2.4},
      {"measurement": "Efficacy (%) FLuc-C-NLuc SDR (-ATP)", "setting": "- ATP", "value": 0.00, "unit": "%"},
      {"measurement": "SDR+ATP", "setting": "M -4.48", "value": 68.61},
      {"measurement": "SDR", "setting": "M -4.48", "value": 10.53},
      {"measurement": "SDR+ATP", "setting": "M -4.96", "value": 61.30},
      {"measurement": "SDR", "setting": "M -4.96", "value": 11.57},
      {"measurement": "SDR+ATP", "setting": "M -5.44", "value": 53.17},
      {"measurement": "SDR", "setting": "M -5.44", "value": 11.00},
      {"measurement": "SDR+ATP", "setting": "M -5.91", "value": 34.17},
      {"measurement": "SDR", "setting": "M -5.91", "value": 13.65},
      {"measurement": "SDR+ATP", "setting": "M -6.39", "value": 20.63},
      {"measurement": "SDR", "setting": "M -6.39", "value": 10.99},
      {"measurement": "SDR+ATP", "setting": "M -6.87", "value": 11.14},
      {"measurement": "SDR", "setting": "M -6.87", "value": 10.66},
      {"measurement": "SDR+ATP", "setting": "M -7.35", "value": 7.50},
      {"measurement": "SDR", "setting": "M -7.35", "value": 9.25},
      {"measurement": "SDR+ATP", "setting": "M -7.82", "value": 9.96},
      {"measurement": "SDR", "setting": "M -7.82", "value": 13.35},
      {"measurement": "SDR+ATP", "setting": "M -8.30", "value": 8.11},
      {"measurement": "SDR", "setting": "M -8.30", "value": 10.95},
      {"measurement": "SDR+ATP", "setting": "M -8.78", "value": 7.12},
      {"measurement": "SDR", "setting": "M -8.78", "value": 11.55},
      {"measurement": "SDR+ATP", "setting": "M -9.25", "value": 7.93},
      {"measurement": "SDR", "setting": "M -9.25", "value": 9.61}
    ]}
  ]
}
